Where “and” joins values, the source holds several entries; their conditions need not be identical. Equal values may be shown once. *: point of attachment. AMC = Cc1cc(=O)oc2cc(N*)ccc12

Common to all, as to assay: HDAC activity with fluorogenic lysyl substrates
What all share (type): biochemical
Holding throughout (details): 50 μM substrate

The target in one assay is T1, HDAC7 (Homo sapiens, UniProt Q8WUI4).
T1 construct: made in house; host or cells: E. coli
T1 sequence (Q8WUI4 483-903): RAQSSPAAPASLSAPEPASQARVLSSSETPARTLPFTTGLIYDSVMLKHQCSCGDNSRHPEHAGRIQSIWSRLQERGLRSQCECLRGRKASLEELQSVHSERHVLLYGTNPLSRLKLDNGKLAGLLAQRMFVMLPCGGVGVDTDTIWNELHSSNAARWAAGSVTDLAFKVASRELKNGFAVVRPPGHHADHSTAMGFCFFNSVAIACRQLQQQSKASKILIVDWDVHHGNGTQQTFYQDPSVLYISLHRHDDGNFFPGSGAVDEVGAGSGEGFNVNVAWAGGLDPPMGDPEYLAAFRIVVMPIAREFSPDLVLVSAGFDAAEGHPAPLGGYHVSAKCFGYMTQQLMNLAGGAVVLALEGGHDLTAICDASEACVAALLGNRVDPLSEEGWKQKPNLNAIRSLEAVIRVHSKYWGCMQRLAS
The protocol: (§1) The Ac-Lys(Succ.)-AMC substrate was tested for activity with recombinant preparations of human HDACs 1-11, SIRTs 1-4, 6 and 7, a complex of HDAC3 with a fragment of the activating protein NCOR1 and with HeLa nuclear extract, a rich source of active HDACs in their native multiprotein complexes.
(§2) Enzyme and extract catalog products obtained from ENZO Life Sciences included: HDAC1 (Cat. # BML-SE456), HDAC2 (Cat. # BML-SE500), HDAC3 (Cat. # BML-SE507), HDAC3/NCOR1 Complex (Cat. # BML-SE515), HDAC6 (Cat. # BML-SE508), HDAC8 (Cat. # BML-SE145), HDAC10 (Cat. # BML-SE559), HDAC11 (Cat. # BML-SE560), SIRT1 (Cat. # BML-SE239), SIRT2 (Cat. # BML-SE251), SIRT3 (Cat. # BML-SE270), SIRT5 (Cat. # BML-SE555), HeLa Nuclear Extract (Cat. # BML-KI140), Trypsin (“Fluor de Lys Developer”, 80 mg/ml bovine trypsin in 1 mM HCl, Cat. # BML-KI105 or “Fluor de Lys Developer II”, 80 mg/ml bovine trypsin in 1 mM HCl, Cat. # BML-KI176). […] Enzymes obtained from BPS Bioscience, San Diego, Calif. included: human recombinants SIRT4 (Cat. #50015), SIRT6 (Cat. #50017), SIRT7 (Cat. #50018). HeLa whole cell extract was obtained from HeLa S3 cells (American Type Culture Collection) grown in a medium of MEM/10% fetal bovine serum (FBS) as follows: 1) 9×10^6 cells were suspended by trypsinization, followed by a phosphate buffered saline (PBS) rinse and addition of MEM/10% FBS (1.5 mL) to eliminate trypsin before transfer to a 15 mL conical tube; 2) cells were sedimented by a low speed centrifugation, gently resuspended in PBS and sedimented again and supernatant removed; 3) lysis was induced by resuspension in 0.8 mL 50 mM Tris/HCl, pH 8.0 with the non-denaturing detergent NP-40 (0.5%), placement on ice and brief vortexing every 5 min. for 30 min.; 4) 100 μl of a concentrated salt solution in the same buffer was added in order to bring the final buffer composition to 50 mM Tris/C1, pH 8.0, 137 mM NaCl, 2.7 mM KCl, 1 mM MgCl2, 0.5% NP-40; 5) particulate matter was cleared by centrifugation and the cleared lysate supernatant transferred to a 1.5 mL Eppendorf tube and stored on ice until use in activity assays.
(§3) Assays were performed at 37° C., according to the manufacturer's instructions for the “SIRT1 Fluorometric Drug Discovery Kit” from Enzo Life Sciences (ELS) (Cat. # BML-AK555), with exceptions described as follows. Where indicated in figures and text, SIRT1 enzyme was replaced with another enzyme or extract and the “Fluor de Lys-SIRT1 Substrate” (Ac-Arg-His-Lys-Lys(Ac)-AMC; ELS Cat. # BML-KI-177) was replaced with another acetylated, succinylated or trifluoroacetylated substrate.

The next assay addresses T2, HDAC2 (Homo sapiens, UniProt Q92769).
T2 construct: purchased ENZO Life Sciences BML-SE500
The protocol: as §1, §2, §3

For another assay, the target named is T3, HDAC10 (Homo sapiens, UniProt Q969S8).
T3 construct: purchased ENZO Life Sciences BML-SE559
T3 sequence (Q969S8 1-669): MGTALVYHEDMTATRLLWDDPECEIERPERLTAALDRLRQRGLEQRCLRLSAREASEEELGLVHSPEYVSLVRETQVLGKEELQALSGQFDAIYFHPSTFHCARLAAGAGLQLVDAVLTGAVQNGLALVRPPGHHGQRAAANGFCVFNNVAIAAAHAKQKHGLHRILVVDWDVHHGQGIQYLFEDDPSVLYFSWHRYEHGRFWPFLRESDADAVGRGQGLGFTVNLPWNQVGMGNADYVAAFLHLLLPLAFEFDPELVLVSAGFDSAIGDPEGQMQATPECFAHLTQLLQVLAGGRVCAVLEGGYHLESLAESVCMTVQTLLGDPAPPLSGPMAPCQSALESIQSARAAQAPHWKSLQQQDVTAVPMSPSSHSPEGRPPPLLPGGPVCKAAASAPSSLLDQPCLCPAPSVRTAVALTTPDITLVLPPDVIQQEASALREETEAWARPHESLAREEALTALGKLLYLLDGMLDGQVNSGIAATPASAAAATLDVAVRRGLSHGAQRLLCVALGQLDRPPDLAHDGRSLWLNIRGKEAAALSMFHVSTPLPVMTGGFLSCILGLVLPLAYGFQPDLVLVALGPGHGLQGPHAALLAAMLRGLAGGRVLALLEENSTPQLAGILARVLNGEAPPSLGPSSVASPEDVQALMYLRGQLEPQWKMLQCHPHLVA
The protocol: as §1, §2, §3

In a further assay the target is T4, HDAC1 (Homo sapiens, UniProt Q13547).
T4 construct: purchased ENZO Life Sciences BML-SE456
T4 sequence (Q13547 whole entry): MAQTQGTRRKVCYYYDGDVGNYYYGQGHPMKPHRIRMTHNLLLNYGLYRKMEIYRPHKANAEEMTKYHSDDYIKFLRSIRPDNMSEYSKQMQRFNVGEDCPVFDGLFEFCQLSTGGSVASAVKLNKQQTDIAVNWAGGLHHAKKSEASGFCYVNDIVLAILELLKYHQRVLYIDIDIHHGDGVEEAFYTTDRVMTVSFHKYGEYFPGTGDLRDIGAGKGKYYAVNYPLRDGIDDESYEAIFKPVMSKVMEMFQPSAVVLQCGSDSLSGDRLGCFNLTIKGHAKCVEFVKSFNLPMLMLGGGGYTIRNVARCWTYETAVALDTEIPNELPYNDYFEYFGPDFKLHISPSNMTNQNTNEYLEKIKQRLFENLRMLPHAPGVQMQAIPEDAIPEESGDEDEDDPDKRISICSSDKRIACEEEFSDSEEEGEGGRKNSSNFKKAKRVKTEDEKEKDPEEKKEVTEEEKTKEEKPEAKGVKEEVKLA
The protocol:
as §1, §2, §3

The next assay addresses T5, HDAC3 (Homo sapiens, UniProt O15379).
T5 construct: purchased ENZO Life Sciences BML-SE507
The protocol:
as §1, §2, §3

For the next assay, the target named is T6, HDAC3/NCOR1 Complex (Homo sapiens, UniProt O15379).
T6 construct: purchased ENZO Life Sciences BML-SE515
T6 sequence (O15379 whole entry): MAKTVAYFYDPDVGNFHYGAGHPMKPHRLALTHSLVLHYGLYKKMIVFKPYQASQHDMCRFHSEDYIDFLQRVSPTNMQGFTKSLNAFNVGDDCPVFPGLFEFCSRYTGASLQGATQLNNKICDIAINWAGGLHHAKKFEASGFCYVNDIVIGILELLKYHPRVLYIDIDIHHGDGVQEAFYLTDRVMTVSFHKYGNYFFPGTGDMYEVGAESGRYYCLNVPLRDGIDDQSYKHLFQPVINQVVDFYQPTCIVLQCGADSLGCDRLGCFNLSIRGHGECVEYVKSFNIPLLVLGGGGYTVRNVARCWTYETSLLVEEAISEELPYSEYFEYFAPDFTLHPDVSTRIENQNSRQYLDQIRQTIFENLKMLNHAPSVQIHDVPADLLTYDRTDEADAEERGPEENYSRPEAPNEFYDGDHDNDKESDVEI
T6 sequence (O75376 395-489 partner limits assumed): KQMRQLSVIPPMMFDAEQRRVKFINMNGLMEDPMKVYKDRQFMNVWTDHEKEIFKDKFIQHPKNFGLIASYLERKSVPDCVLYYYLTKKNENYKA
The protocol: as §1, §2, §3

T2 sequence (Q92769 whole entry): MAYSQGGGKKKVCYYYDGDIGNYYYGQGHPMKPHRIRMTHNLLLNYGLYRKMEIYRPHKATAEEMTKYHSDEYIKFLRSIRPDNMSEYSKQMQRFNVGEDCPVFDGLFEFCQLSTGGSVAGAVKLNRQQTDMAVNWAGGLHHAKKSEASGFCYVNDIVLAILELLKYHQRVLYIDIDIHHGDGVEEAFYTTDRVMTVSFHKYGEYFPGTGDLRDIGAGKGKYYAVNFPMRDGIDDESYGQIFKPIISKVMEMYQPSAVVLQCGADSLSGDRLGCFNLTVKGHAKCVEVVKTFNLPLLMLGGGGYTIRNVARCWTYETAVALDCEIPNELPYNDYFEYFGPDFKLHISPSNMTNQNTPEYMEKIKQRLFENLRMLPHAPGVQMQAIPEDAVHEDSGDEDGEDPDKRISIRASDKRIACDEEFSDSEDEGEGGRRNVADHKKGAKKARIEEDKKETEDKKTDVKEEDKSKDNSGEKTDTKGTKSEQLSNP
T5 sequence (O15379 whole entry): as the sequence (O15379 whole entry) above

Consider `CC(=O)N[C@@H](CCCCNC(=O)CCC(=O)O)C(=O)Nc1ccc2c(C)cc(=O)oc2c1` [Compound 1, N—(N^α-acetyl-L-Lysine(N^ε-succinyl))-AMC], for which the “Activity (pmol/min/μg)” value on HDAC7, at HDAC10, on HDAC1 and on HDAC3 was “Undetectable” each time. The entries for the “Activity” value on HDAC2 and at HDAC3/NCOR1 Complex were 0.28 pmol/min/µg and 0.40 pmol/min/µg, respectively.

Consider `COC(=O)CCC(=O)NCCCC[C@H](NC(C)=O)C(=O)Nc1ccc2c(C)cc(=O)oc2c1` [Compound 5, N—(N^α-acetyl-L-Lysine(N^ε-methyl succinyl))-AMC], for which the “Activity (pmol/min/μg)” value on HDAC7 is reported as “Undetectable”. The “Activity” value came out at 31.330 pmol/min/µg at HDAC2, 0.798 pmol/min/µg on HDAC1, 0.431 pmol/min/µg at HDAC3 and 53.750 pmol/min/µg at HDAC3/NCOR1 Complex.

With “Ac-Arg-His-Lys-Lys(ε-acetyl)-AMC (Ac-RHKK(Ac)-{AMC}; SMILES CC(=O)NCCCC[C@H](NC(=O)[C@H](CCCCN)NC(=O)[C@H](Cc1c[nH]cn1)NC(=O)[C@H](CCCNC(=N)N)NC(C)=O)C(=O)Nc1ccc2c(C)cc(=O)oc2c1) [Ac-RHKK(Ac)-AMC, p53 peptide fluorogenic deacetylase substrate, Cat. # BML-KI177, reference compound]”, the “Activity (pmol/min/μg)” value with HDAC10 is listed as “Ac-RHKK(Ac)-AMC/2.72 pmol/min/μg”; with HDAC1 it was “Ac-RHKK(Ac)-AMC/21 pmol/min/μg”; with HDAC3/NCOR1 Complex, “Ac-RHKK(Ac)-AMC/687 pmol/min/μg”.

Take `CC(=O)NCCCCC(NC(C)=O)C(=O)Nc1ccc2c(C)cc(=O)oc2c1` (stereo not shown) [Ac-Lys(Ac.)-AMC, Ac-Lys(ε-acetyl)-AMC, reference compound]: the “Activity (pmol/min/μg)” value at HDAC7 is recorded as “Undetectable”. The “Activity” value on HDAC2 was 554 pmol/min/µg; at HDAC10 it was 1.21 pmol/min/µg; on HDAC1, 14.8 pmol/min/µg; at HDAC3 (listed as Ac-Lys(Acetyl)-AMC), 3.8 pmol/min/µg and 3.80 pmol/min/µg; on HDAC3/NCOR1 Complex, 668 pmol/min/µg.

Regarding `CCCCCCCCCCCCCC(=O)NCCCC[C@H](NC(C)=O)C(=O)Nc1ccc2c(C)cc(=O)oc2c1` [Compound 4, N—(N^α-acetyl-L-Lysine(N^ε-myristoyl))-AMC], the “Activity (pmol/min/μg)” value at HDAC7 is “Undetectable”. Further, the “Activity” value at HDAC2 turned out to be 83.05 pmol/min/µg; at HDAC1, 1.651 pmol/min/µg; on HDAC3, 0.963 pmol/min/µg; on HDAC3/NCOR1 Complex it was 79.023 pmol/min/µg.

For the origin of these results see patent US10920265B2, “Compounds and methods for detection of enzymes that remove methyl succinyl groups from epsilon-amino lysine moieties” (Enzo Life Sciences, Inc., priority 2011, dated 2021).
